From patent publication US12655072B2, “Formulation system for compositions for enhancing nitrogen stabilizers” (Verdesian Life Sciences U.S., LLC, priority 2020, dated 2026)

How the values were obtained:
[1] = test system: corn hybrid AG 8088 VT PRO; test: Field study, no-till rainfed corn: harvest, dry plant mass, N content; assay type: in vivo; conditions: 135 kg/ha of N
Method: A field study was carried out of an area under no-till system that was cultivated with rainfed corn (i.e., without irrigation). The corn cultured was a corn hybrid AG 8088 VT PRO (High yield) with a Standak Top of 100 mL/ha and a plant density of 77,000 plants/ha. The following three formulations were applied at three different rates ([…]) to a field: • Trident Formulation (10-10-10; % polymer-% DCD-% NBPT) • Trident V Formulation (5-5-15; % polymer-% DCD-% NBPT) • Trident N Formulation (5-20-5; % polymer-% DCD-% NBPT)
As a control, plants were only treated with the nitrogen fertilizer (e.g., UAN with 30%-45% N) or were left untreated.
The nitrogen fertilizer was applied with 135 kg/ha of N, which corresponds to a dose of 75N/bu for 10.8 ton/ha of maize. In addition a typical herbicide, fungicide and insecticide program was adopted to remove all study variability due to weeds, diseases or insects throughout the study period;
(§1) The activity of nitrate reductase enzyme at V2-V3 and flowering (first fully developed leaf, three plants per plot) was measured. In addition, soil collection was performed for the determination of N—NO3 and N—NH4 up to 30 days after the application of the cover. This methodology was adapted by Cataldo et al (1975) and Kemper; Zewers (1986). Soil Fertility Center (CEFERT). Growth analysis was performed on dry plant mass every 30 days. Harvesting was performed at physiological maturity. The plants of the three central lines of each plot was harvested excluding 1.0 meter at each end. The rows were measured and the number of plants and ears per row harvested were counted. After harvesting, manual threshing was performed and the 100 grain mass was determined as well as the yield of the crop. Harvest results were estimated for kg/ha and bu/acre.

soil = test: Field study: soil collection for determination of N-NO3 and N-NH4; assay type: in vivo
Method: as §1, with “N-NO3” for “N—NO3”, “N-NH4” for “N—NH4”, “([…]).” for “(CEFERT).”

nitrate reductase enzyme = test: Field study: activity of nitrate reductase enzyme in the leaves; assay type: in vivo, corn
Method: as §1, with “N-NO3” for “N—NO3”, “N-NH4” for “N—NH4”, “([…]).” for “(CEFERT).”

[2] = cited from earlier work
[3] = first collection within 30 days
[4] = second collection within 30 days

Row | SMILES | MSCaule (production of dry mass of corn plants: corn plant stems) [1] [g plant−1] | MSEspiga [1] [g plant−1] | MSFolhas (production of dry mass of corn plants: leaves) [1] [g plant−1] | MSTotal (production of total dry mass of corn plants) [1] [g plant−1] | N Folha (leaf nitrogen content) [1] [dag kg−1] | N Grão [1] [kg ha−1] | grains of corn on the corn ear (FIG. 3) ([1]; compared to untreated) | 1 NH4 (NH4 values in the soil) (soil; [3]) [mg/kg] | 1 NO3 (NO3 values in the soil) (soil; [3]) [mg/kg] | 2 NH4 (NH4 values in the soil) (soil; [4]) [mg/kg] | 2 NO3 (NO3 values in the soil) (soil; [4]) [mg/kg] | 1 ANR (activity of the enzyme nitrate reductase in the leaves) (nitrate reductase enzyme; first measurement (measured at V2-V3 and flowering)) | 2 ANR (activity of the enzyme nitrate reductase in the leaves) (nitrate reductase enzyme; second measurement (measured at V2-V3 and flowering)) | solubility in water [2]
1 | NC(N)=O [Urea N, urea] | 148.04 | 191.75 | 80.28 | 420.06 | 2.24 | 115.04 | exhibited more grains of corn compared to ears that were untreated | 31.97 | 34.16 | 25.93 | 27.07 | 137.51 | 74.82 | 
2 | N#CN=C(N)N [dicyandiamide] |  |  |  |  |  |  |  |  |  |  |  |  |  | about 41 g/l
